{
  "source": "paper PMC9298260",
  "about": "“An Immunomodulatory Peptide Dendrimer Inspired from Glatiramer Acetate” (Angewandte Chemie (International Ed. in English), 2021)",
  "key": {"[1]": {"system": "IL-1Ra release from human primary monocytes", "test": "IL-1Ra release from human primary monocytes, immunoassay (ELISA) of supernatants", "format": "cell-based", "conditions": "primary human monocytes of healthy donors, 25 and 50 μg mL^−1, 48 h", "experimental": "As an activity screen we focused on interleukin‐1 receptor antagonist (IL‐1Ra), a cytokine released by circulating antigen presenting cells (APC) in response to GA.[15, 35] […] To test our dendrimers, we quantified by immunoassay the release of IL‐1Ra from human primary monocytes of healthy donors, an easily accessible type of APC, stimulated or not by addition of lipopolysaccharide (LPS), which in our hands provided a reliable read‐out.[15] We tested at defined weight/volume (25 and 50 μg mL^−1 compound as typically reported for GA)[15, 35] to account for a possible activity increase with MW as often observed with dendrimers when using molarity. In the initial screen the levels of secreted IL‐1Ra remained below 1 ng mL^−1 for all the smaller test compounds as well as with the linear peptide analogs of GA.\nFigure 2 Cytokine level of IL‐1Ra in supernatants of primary human monocytes of healthy donors treated with peptide dendrimers, evaluated by ELISA (bars, left vertical axis) and mRNA levels (▴, right vertical axis). […] For mRNA levels evaluation, 2×10^6 cells 3 mL^−1 in 6 well plates were incubated with 50 μg mL^−1 dendrimer or GA for 18 h. […]\nEnzyme-linked immunosorbent assay (ELISA)\nMonocytes (5×10^4 cells/200 μL well; 96-well plates) were preincubated for 1 h with or without compounds in RPMI-1640 medium supplemented with 10% heat-inactivated FBS, 50 μg/mL streptomycin, 50 U/mL penicillin, 2 mM L-glutamine, and 5 μg/mL polymyxin B sulfate and then cultured for 48 h in the presence or absence of LPS (100 ng/mL) (2). The production of IL-1Ra was measured in culture supernatants by commercially available enzyme immunoassay according to manufacture protocol.\nFigure S2. Cytokine level of IL-1Ra in supernatants of monocytes for active dendrimers and analogues evaluated by ELISA assay on primary human monocytes of healthy donors. 5×10^4 cells/200 µL in 96 well plates, were incubated with dendrimers or GA as a control for 48 h in presence or absence of LPS (100 ng/mL), in a range of concentrations (50-25 µg/mL) (mean ± SD, n = 2 different experiments). The results are present as the difference between each sample and the non-treated sample to take into account the difference between base line for each donor.\nFigure S3. Cytokine level of IL-1Ra in supernatants of monocytes for active dendrimers and […]\npresence or absence of LPS (100 ng/mL), in a range of concentrations (100-12.5 µg/mL) (mean ± SD, n = 3 different experiments). […]"}, "lymphocytes": {"system": "lymphocytes", "test": "IL-1Ra in supernatants of lymphocytes (rest of leukocytes after Percoll), ELISA", "format": "cell-based, human", "conditions": "rest of leukocytes after Percoll gradient, 50-25 µg/mL, 48 h, n = 2", "experimental": "Similar donor dependent responses of cytokine release to GA have been reported for IL‐27.[38]\nFigure S3. Cytokine level of IL-1Ra in supernatants of monocytes for active dendrimers and analogues evaluated by ELISA assay on primary human monocytes of healthy donors. 5×10^4 cells/200 µL in 96 well plates, were incubated with dendrimers or GA as a control for 48 h in presence or absence of LPS (100 ng/mL), in a range of concentrations (100-12.5 µg/mL) (mean ± SD, n = 3 different experiments).\nFigure S4. Cytokine level of IL-1Ra in supernatants of monocytes enriched fraction (a) and the rest of leukocytes (b) for active dendrimers and analogues evaluated by ELISA assay.\nMonocytes fraction was separated from whole PBMC by Percoll density gradient centrifugation. 5×10^4 cells/200 µL in 96 well plates were incubated with dendrimers or GA (50-25 µg/mL) as a control for 48 h (mean ± SD, n = 2 different experiments). […]"}, "IL-1Ra": {"system": "IL-1Ra", "test": "IL-1Ra time profile / mRNA level in monocytes, RT-qPCR", "format": "cell-based, human", "conditions": "50 µg/mL, with and without LPS, without LPS detected only after 18 h", "experimental": "Figure 2 Cytokine level of IL‐1Ra in supernatants of primary human monocytes of healthy donors treated with peptide dendrimers, evaluated by ELISA (bars, left vertical axis) and mRNA levels (▴, right vertical axis). […] For mRNA levels evaluation, 2×10^6 cells 3 mL^−1 in 6 well plates were incubated with 50 μg mL^−1 dendrimer or GA for 18 h.\nTo assess the activity requirements for 1 and 4, we performed a structure–activity relationship (SAR) study on the level of induced IL‐1Ra release measured by immunoassay, which we verified in selected cases at the mRNA level by RT‐qPCR (Figure 2).\n(§1) For closer characterization, we selected dendrimer 1 due to its smaller size and the presence of a cysteine residue that could be used for labelling. […] Furthermore, dendrimer 1 induced the release of IL‐1Ra both with and without LPS activation, but in the latter case the effect was detected only after 18 h incubation (Figure S5e/f).\nEnriched monocytes after Percoll centrifugation (4×10^6 cells/3 mL well; 6-well plates) were preincubated for 1 h with or without compounds in RPMI-1640 medium supplemented with 10% heat-inactivated FBS, 50 μg/mL streptomycin, 50 U/mL penicillin, 2 mM L-glutamine, and then incubated for the indicated duration. After the incubation cells were collected, total RNA was extracted, reverse transcribed and analyzed by SYBR Green Master Mix. […]"}, "TNF-α": {"system": "TNF-α", "test": "TNF-α time profile in monocytes, RT-qPCR", "format": "cell-based, human", "conditions": "50 µg/mL, LPS (100 ng/mL) activated", "experimental": "as §1\n(§2) Enriched monocytes after Percoll centrifugation (4×10^6 cells/3 mL well; 6-well plates) were preincubated for 1 h with or without compounds in RPMI-1640 medium supplemented with 10% heat-inactivated FBS, 50 μg/mL streptomycin, 50 U/mL penicillin, 2 mM L-glutamine, and then incubated for the indicated duration. After the incubation cells were collected, total RNA was extracted, reverse transcribed and analyzed by SYBR Green Master Mix. As a housekeeping gene was used Actin 5'-CAC TGG GGG CTA CTG GAC-3', 3'-AACATGGTGTTGGCAGAAACT-5', IL-1Ra 5'-TTCCTGTTCCATTCAGAGACG -3', 3'-CTTCTGGTTAACATCCCAGATTC -5'.\n(§3) Figure S5. Dendrimer 1 affected mRNA levels in both LPS -activated and resting monocytes.\n(§4) Monocytes 4 ×10^6 cells/3 mL in 6 well plates were incubated for indicated time with 50 µg/mL of 1 or without any treatment (NT) (a, c, e); or preincubated for 1 h with 100 ng/mL of LPS, and then with 50 µg/mL of 1 (b, d, f) or without any treatment (NT). […]"}, "IL-1β": {"system": "IL-1β", "test": "IL-1β time profile in monocytes, RT-qPCR", "format": "cell-based, human", "conditions": "50 µg/mL, inactivated and LPS (100 ng/mL) activated", "experimental": "as §1, §2, §3, §4"}},
  "data": [
    {"substance": "(KA)8(KAK)4(KEKA)2KAKEAYCA-NH2 [compound 1, G3 peptide dendrimer]", "values": [
      {"measurement": "IL-1Ra release activity (in words)", "setting": "[1]", "value": "comparable or higher than GA"},
      {"measurement": "induction of IL-1Ra in lymphocytes", "setting": "lymphocytes", "value": "did not occur"},
      {"measurement": "release of IL-1Ra, time profile", "setting": "IL-1Ra", "value": "induced"},
      {"measurement": "release of TNF-α", "setting": "TNF-α", "value": "inhibited"},
      {"measurement": "production of IL-1β", "setting": "IL-1β", "value": "significantly inhibited"}
    ]}
  ]
}
